Results as given in patent publication US20060009478A1, “Methods for the treatment of back pain” (priority 2003, published 2006).
Several values for one entry are separate records, joined by “and”; a condition that tells them apart may be missing. Identical values can stand only once.

Legend:
[1] = test system: patients with moderate to severe chronic pain due to osteoarthritis of the hip or knee; experiment: Vital signs, clinical laboratory tests, EKG (QTc interval), 3-week osteoarthritis study; type: in vivo, human; conditions: 3-week treatment
From the text: The opioid toxicity assessment included: (A) CNS review by assessing for (1) confusion, altered mental state, (2) excessive drowsiness, lethargy, stupor, (3) slurred speech (new onset), (4) respiratory, (5) hypoventilation, shortness of breath, apnea, (6) hypoxia, hypercarbia; and (b) cardiac review by assessing for bradycardia, hypotension, and shock. If patients experienced any of these or other symptoms that, in the principal investigator's opinion, would pose a significant risk if additional opioid doses were administered, doses were not escalated on Week 2, Day 1 or Week 3, Day 1.

[2] = test system: patients with moderate to severe chronic low back pain; experiment: Opioid Associated Adverse Event Score (OAAES), low back pain study; type: in vivo, human; conditions: through the treatment period; ITT population
From the text: The OAAES is a derived measure using the maximum severity for each of six opioid-associated adverse events (constipation, nausea, vomiting, dizziness, somnolence, and pruritis). For each patient, a maximum severity score (mild=1, moderate=2, and severe=3) was summed for each of the six treatment emergent opioid-associated adverse events that were present. […]

[3] = test system: IL6; experiment: Plasma cytokine concentration, Pointilliste Human Th1/Th2 Cytokine Canvas; type: in vivo; conditions: OXY = oxycodone QID, BID/QID = combination drug of oxycodone and naltrexone BID/QID
Description: (§1) Plasma samples from selected subjects in the clinical study were used to assay for the presence and concentration of selected cytokines.
(§2) Plasma samples were analyzed using a commercial cytokine assay from Pointilliste (www.pointilliste.com) to quantify the concentrations of IL2, IL4, IL5, IL6, IL10, IL13, GM-CSF, interferon and TNFα. Plasma samples were separately analyzed for IL1αand IL1β, which were quantitated using a conventional cytokine assay by Pointilliste. The cytokine assay for the quantitation of IL2, IL4, IL5, IL6, IL10, IL13, GM-CSF, interferon and TNFα employed, Pointilliste's Human Th1/Th2 Cytokine Canvas product which contains binding sites for each of these nine cytokines.
(§3) Two measurements (duplicates) for each cytokine were possible for each plasma sample applied to a canvas, since the canvas has two binding sites for each cytokine.
(§4) Fifty-seven frozen human plasma samples containing EDTA as an anticoagulant were thawed on ice and transferred to a sterile 96-deep well polypropylene plate. The plate was centrifuged briefly at 4° C. to clarify the plasma. Aliquots of clarified plasma were removed for cytokine analysis, and the remaining samples in the 96-deep well polypropylene plate were stored at −80° C.
(§5) The aliquots of clarified plasma were transferred to sterile non-protein binding 96-well polypropylene plates to enable parallel processing of the samples. Two different 96 well plates were used, and each received a subsample of the aliquots at different dilutions. Two dilutions (1 in 1 and 1 in 10) of each sample were assayed on two separate human Th1/Th2 cytokine canvases. In order to quantify the cytokine concentrations, standard curves were generated for each dilution. A mixture of 9 cytokines was run on each of the canvases and used to calculate a standard curve, which was used to determine the amount of each cytokine in the samples. The standard curves were plotted with the signal intensity as a function of the cytokine concentration in ng/ml. A CCD camera was used with Pointilliste's Canvas Analysis Tools software to generate data corresponding to cytokine concentrations.

[4] = test system: IL2; experiment: as above; type: in vivo; conditions: OXY = oxycodone QID, BID/QID = combination drug of oxycodone and naltrexone BID/QID
Description: as §1, §2, §3, §4, §5

[5] = test system: TNFα; experiment: as above; type: in vivo; conditions: OXY = oxycodone QID, BID/QID = combination drug of oxycodone and naltrexone BID/QID
Description: as §1, §2, §3, §4, §5

[6] = test system: interferon gamma; experiment: as above; type: in vivo; conditions: OXY = oxycodone QID, BID/QID = combination drug of oxycodone and naltrexone BID/QID
Description: as §1, §2, §3, §4, §5

[7] = test system: IL13; experiment: as above; type: in vivo; conditions: OXY = oxycodone QID, BID/QID = combination drug of oxycodone and naltrexone BID/QID
Description: as §1, §2, §3, §4, §5

[8] = test system: IL4; experiment: as above; type: in vivo; conditions: OXY = oxycodone QID, BID/QID = combination drug of oxycodone and naltrexone BID/QID
Description: as §1, §2, §3, §4, §5

[9] = test system: IL10; experiment: as above; type: in vivo; conditions: OXY = oxycodone QID, BID/QID = combination drug of oxycodone and naltrexone BID/QID
Description: as §1, §2, §3, §4, §5

[10] = test system: patients with moderate to severe chronic pain due to osteoarthritis of the hip or knee; experiment: Global assessment of study medication, 3-week osteoarthritis study; type: in vivo, human
Description: Global Assessment of Study Medication was also assessed weekly at clinic visits. The patient was prompted with the question, “How would you rate the study medication you received this past week? (Please consider the quality of your pain relief, your side effects, your activity level, your mood and sense of well-being, etc. in this evaluation.)”. Responses were selected from poor, fair, good, very good, and excellent.
(§6) The global assessment, quality of analgesia, and pain control, recorded at the end of each week, were summarized in terms of category proportions.
For secondary analysis of data, pain intensity changes, SF-12, and WOMAC were analyzed with the ANOVA methods as described above. Within treatment arms, weeks were compared in pairwise fashion using paired-sample methods. The global assessments, quality of analgesia ratings, and pain control was analyzed at each week, globally and in pairwise fashion, using the Cocharan-Mantel-Haenszel row mean scores (CMH-RMS) test, using equally spaced scores. An “observed data” analysis, without any data imputation, was conducted on pain intensity changes, global assessments, quality of analgesia ratings, pain control, SF-12, and WOMAC using the same analysis methods described previously.

[11] = test system: patients with moderate to severe chronic pain due to osteoarthritis of the hip or knee; experiment: Pain control, 3-week osteoarthritis study; type: in vivo, human; conditions: ITT (N = 102 per active group), LOCF
Description: Pain Control was also assessed weekly at clinic visits. The patient was prompted with the question, “During the past week, how would you describe your pain control during the course of each day?” Responses were selected from: Pain was controlled for (1) a few hours or less each day; (2) several hours each day; (3) most of each day; and (4) throughout each day.
as §6
For secondary analysis of data, pain intensity changes, SF-12, and WOMAC were analyzed with the ANOVA methods as described above. Within treatment arms, weeks were compared in pairwise fashion using paired-sample methods. The global assessments, quality of analgesia ratings, and pain control was analyzed at each week, globally and in pairwise fashion, using the Cocharan-Mantel-Haenszel row mean scores (CMH-RMS) test, using equally spaced scores.

[12] = individual measurements of plasma samples, listed as OXY
[13] = treatment group mean, random sample of subjects
[14] = ITT (N = 102 per active group), LOCF

COc1ccc2c3c1O[C@H]1C(=O)CC[C@@]4(O)[C@@H](C2)N(C)CC[C@]314 [OXY QID, oxycodone]
Effects on vital signs, laboratory safety tests or QTc interval changes [1]: no clinically meaningful effects
Opioid Associated Adverse Event Score (OAAES), maximum [2]: 16.0
Opioid Associated Adverse Event Score (OAAES), mean (SD) [2]: 5.6 (3.95)
Opioid Associated Adverse Event Score (OAAES), median [2]: 5.0
Opioid Associated Adverse Event Score (OAAES), minimum [2]: 0.0
IL6 cytokine concentration [3, 12]: 0.04453 ng/mL and 0.0579 ng/mL and 0.06949 ng/mL and 0.0733 ng/mL and 0.07724 ng/mL and 0.0774 ng/mL and 0.1107 ng/mL and 0.1115 ng/mL and 0.1391 ng/mL and 0.1469 ng/mL and 0.3354 ng/mL and 0.3599 ng/mL and 0.5957 ng/mL and 0.604 ng/mL
Mean of IL6 concentrations [3, 13]: 0.2 ng/mL
IL2 cytokine concentration [4, 12]: 0.1202 ng/mL and 0.1501 ng/mL and 0.1613 ng/mL and 0.1672 ng/mL and 0.208 ng/mL and 0.2689 ng/mL and 0.3259 ng/mL and 0.4012 ng/mL and 0.4755 ng/mL and 0.5532 ng/mL and 0.7233 ng/mL and 1.583 ng/mL and 1.817 ng/mL and 0.092 ng/mL
Mean of IL2 concentrations [4, 13]: 0.503 ng/mL
TNF cytokine concentration [5, 12]: 0.05312 ng/mL and 0.05316 ng/mL and 0.05332 ng/mL and 0.06095 ng/mL and 0.1469 ng/mL and 0.2 ng/mL and 0.5152 ng/mL and 0.5153 ng/mL
Mean of TNF concentrations [5, 13]: 0.2 ng/mL
IFN cytokine concentration [6, 12]: 0.07226 ng/mL and 0.07442 ng/mL and 0.2197 ng/mL and 0.2407 ng/mL
Mean of IFN concentrations [6, 13]: 0.152 ng/mL
IL13 cytokine concentration [7, 12]: 2.362 ng/mL and 3.291 ng/mL and 3.392 ng/mL and 0.06466 ng/mL and 0.073 ng/mL and 0.1092 ng/mL and 0.1415 ng/mL and 0.1418 ng/mL and 0.1451 ng/mL and 0.1509 ng/mL and 0.169 ng/mL and 0.2847 ng/mL and 0.3385 ng/mL and 0.37 ng/mL and 0.6256 ng/mL and 0.941 ng/mL and 1.09 ng/mL and 2.079 ng/mL
Mean of IL13 concentrations [7, 13]: 0.876 ng/mL
IL4 cytokine concentration [8, 12]: 0.0907 ng/mL and 0.09132 ng/mL and 0.1379 ng/mL and 0.1411 ng/mL and 0.2369 ng/mL and 0.2651 ng/mL and 0.4655 ng/mL and 0.4725 ng/mL
Mean of IL4 concentrations [8, 13]: 0.238 ng/mL
IL10 cytokine concentration [9, 12]: 0.07237 ng/mL and 0.2164 ng/mL and 0.2235 ng/mL and 0.2438 ng/mL and 0.2959 ng/mL and 0.3757 ng/mL and 0.9598 ng/mL and 1.236 ng/mL and 1.26 ng/mL and 1.394 ng/mL
Mean of IL10 concentrations [9, 13]: 0.628 ng/mL
Global assessment Week 1: EXCELLENT (4), number (%) of patients [10, 14]: 3 (2.9%)
Global assessment Week 1: FAIR (1), number (%) of patients [10, 14]: 37 (36.3%)
Global assessment Week 1: GOOD (2), number (%) of patients [10, 14]: 30 (29.4%)
Global assessment Week 1: POOR (0), number (%) of patients [10, 14]: 16 (15.7%)
Global assessment Week 1: VERY GOOD (3), number (%) of patients [10, 14]: 12 (11.8%)
Global assessment Week 2: EXCELLENT (4), number (%) of patients [10, 14]: 6 (5.9%)
Global assessment Week 2: FAIR (1), number (%) of patients [10, 14]: 29 (28.4%)
Global assessment Week 2: POOR (0), number (%) of patients [10, 14]: 16 (15.7%)
Global assessment Week 3: EXCELLENT (4), number (%) of patients [10, 14]: 6 (5.9%)
Global assessment Week 3: FAIR (1), number (%) of patients [10, 14]: 18 (17.6%)
Global assessment Week 3: GOOD (2), number (%) of patients [10, 14]: 36 (35.3%)
Global assessment Week 3: POOR (0), number (%) of patients [10, 14]: 24 (23.5%)
Global assessment Week 3: VERY GOOD (3), number (%) of patients [10, 14]: 14 (13.7%)
Patients reporting a global assessment of very good or excellent at Week 3 ([10]; Week 3): 19.6%
Pain control Week 1: PAIN CONTROLLED A FEW HRS/LESS EACH DAY (1), number (%) of patients [11]: 42 (41.2%)
Pain control Week 1: PAIN CONTROLLED MOST OF EACH DAY (3), number (%) of patients [11]: 17 (16.7%)
Pain control Week 1: PAIN CONTROLLED SEVERAL HRS EACH DAY (2), number (%) of patients [11]: 29 (28.4%)
Pain control Week 1: PAIN CONTROLLED THROUGHOUT EACH DAY (4), number (%) of patients [11]: 10 (9.8%)
Pain control Week 2: PAIN CONTROLLED A FEW HRS/LESS EACH DAY (1), number (%) of patients [11]: 36 (35.3%)
Pain control Week 2: PAIN CONTROLLED MOST OF EACH DAY (3), number (%) of patients [11]: 26 (25.5%)
Pain control Week 2: PAIN CONTROLLED SEVERAL HRS EACH DAY (2), number (%) of patients [11]: 26 (25.5%)
Pain control Week 2: PAIN CONTROLLED THROUGHOUT EACH DAY (4), number (%) of patients [11]: 10 (9.8%)
Pain control Week 3: PAIN CONTROLLED A FEW HRS/LESS EACH DAY (1), number (%) of patients [11]: 35 (34.3%)
Pain control Week 3: PAIN CONTROLLED MOST OF EACH DAY (3), number (%) of patients [11]: 27 (26.5%)
Pain control Week 3: PAIN CONTROLLED THROUGHOUT EACH DAY (4), number (%) of patients [11]: 8 (7.8%)
